Patent US10613104B2, “Assay to determine anticoagulants in blood or blood plasma” (ZAFENA AB, priority 2014, dated 2020)

Test system: prothrombin time (PT) of control plasma NKP
Assay: 20 μL and 5 μL PT methods with reagent P161 at various added CaCl2, NKP + 500 μg/L apixaban
Type: biochemical
Experimental: With each reagent three samples were analyzed by the two PT methods of the anticoagulant assay, the 20 μL-method and the 5 μL-method. Two of the samples were reference samples, the control plasmas NKP and ZAP, with established INR values of 1.00 and 2.50, respectively.

In the case of `COc1ccc(-n2nc(C(N)=O)c3c2C(=O)N(c2ccc(N4CCCCC4=O)cc2)CC3)cc1` [apixaban], the “5 uL-method NKP + 500 INR5c” value (reagent P161, added Ca2+ 4 mM) is reported as 1.18, the “20 uL-method NKP + 500 INR20c” value (reagent P161, added Ca2+ 4 mM) is reported as 1.83 and the “20 uL-method NKP + 500 INR20c” value (reagent P161, added Ca2+ 8 mM) is reported as 2.15. For the same compound, the “20 uL-method NKP + 500 INR20c” value (reagent P161, added Ca2+ 16 mM) was 3.15, the “20 uL-method NKP + 500 INR20c” value (reagent P161, added Ca2+ 24 mM) was 3.30 and the “5 uL-method NKP + 500 INR5c” value (reagent P161, added Ca2+ 32 mM) was 1.49. For the same compound, the “20 uL-method NKP + 500 INR20c” value (reagent P161, added Ca2+ 32 mM) was 3.38.
